Source: article PMC11811597, “Phenomics‐Based Discovery of Novel Orthosteric Choline Kinase Inhibitors” (Angewandte Chemie (International Ed. in English), 2025)

Legend:
Experiment in all cases: Competitive affinity-based chemoproteomics (UNC0965 matrix), PBMC cell extract
Assay type in all cases: binding
EHMT1 = target: T1, EHMT1 (Homo sapiens, UniProt Q9H9B1); details: 20 µM competitor; for FC vs DMSO (log2 competition), EHMT1: n=2
T1 construct: endogenous in cells; host or cells: PBMC from healthy blood donors, cell extract
T1 sequence (Q9H9B1 1-1298): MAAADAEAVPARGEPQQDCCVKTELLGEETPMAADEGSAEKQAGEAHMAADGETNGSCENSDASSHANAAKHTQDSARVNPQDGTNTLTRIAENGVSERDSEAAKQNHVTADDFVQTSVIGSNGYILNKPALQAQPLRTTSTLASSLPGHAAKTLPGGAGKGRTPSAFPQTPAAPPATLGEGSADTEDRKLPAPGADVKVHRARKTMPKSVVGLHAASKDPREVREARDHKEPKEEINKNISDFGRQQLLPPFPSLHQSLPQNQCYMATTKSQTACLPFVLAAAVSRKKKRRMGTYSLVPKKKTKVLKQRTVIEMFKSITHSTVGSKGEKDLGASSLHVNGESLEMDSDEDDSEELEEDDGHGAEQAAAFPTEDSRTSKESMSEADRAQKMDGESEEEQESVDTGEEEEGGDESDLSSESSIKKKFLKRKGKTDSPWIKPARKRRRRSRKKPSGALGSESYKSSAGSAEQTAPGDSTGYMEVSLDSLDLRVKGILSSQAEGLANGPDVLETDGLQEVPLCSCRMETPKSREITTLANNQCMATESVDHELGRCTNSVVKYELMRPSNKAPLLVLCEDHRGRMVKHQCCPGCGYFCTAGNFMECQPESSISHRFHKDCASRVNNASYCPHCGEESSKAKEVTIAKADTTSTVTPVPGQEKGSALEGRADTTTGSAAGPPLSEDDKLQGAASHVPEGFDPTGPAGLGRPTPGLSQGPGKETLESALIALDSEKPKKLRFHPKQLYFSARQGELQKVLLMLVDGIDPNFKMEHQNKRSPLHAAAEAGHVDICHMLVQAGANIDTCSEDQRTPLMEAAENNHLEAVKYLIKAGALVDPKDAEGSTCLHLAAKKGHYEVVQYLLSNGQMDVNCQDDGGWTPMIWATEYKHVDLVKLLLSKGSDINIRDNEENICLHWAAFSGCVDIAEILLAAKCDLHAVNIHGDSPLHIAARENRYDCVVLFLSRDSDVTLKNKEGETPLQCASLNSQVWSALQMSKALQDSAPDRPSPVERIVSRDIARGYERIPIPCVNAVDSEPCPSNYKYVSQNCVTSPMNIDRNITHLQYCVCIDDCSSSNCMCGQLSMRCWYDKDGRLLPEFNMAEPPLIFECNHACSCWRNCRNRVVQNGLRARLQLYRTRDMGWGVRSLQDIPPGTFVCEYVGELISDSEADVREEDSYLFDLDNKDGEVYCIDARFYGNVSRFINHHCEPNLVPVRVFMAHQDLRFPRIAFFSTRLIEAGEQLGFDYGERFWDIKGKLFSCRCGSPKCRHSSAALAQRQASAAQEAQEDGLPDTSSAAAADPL
Procedure: (§1) described.[2] Lysates were precleared with bead slurry (100 μL) for 30 min at 4 °C and then treated with UNC0638 or UNC0737 (20 μM) or DMSO control for 30 min at 4 °C followed by incubation with affinity matrix for 2 h at 4 °C. Affinity matrices were washed with buffer A (5 mL) and proteins eluted with 100 μL of 2x Laemmli sample buffer, 100 mM DTT, in PBS and heating for 10 min at 90 °C.
(§2) Eluents (70 µL) were diluted in 0.1 M Tris (pH 7.8) to 200 µL, reduced with 5 mM DTT for 30 min at RT, and alkylated with 20 mM iodoacetamide for 30 min at RT in the dark. Proteins were precipitated by sequential addition of MeOH (600 µL), CHCl3 (150 µL) and H2O (450 µL), pelleted (17,000 × g, 5 min), washed with further MeOH (2 × 600 µL), and re-pelleted. Air dried pellets were resuspended in 50 μL 6 M urea (pH 7.8) by vortexing and then diluted with 250 μL H2O before adding 1 µg trypsin for overnight incubation at 37 °C. The digests were acidified with FA (1% v/v final concentration), desalted using SOLA HRP SPE Cartridges (Thermo Fisher), eluted with 69% v/v MeCN, 0.1% v/v FA in H2O (600 μL) and dried in vacuo. Dried peptides were stored at -20 °C before resuspension in 2% v/v MeCN, 0.1% v/v FA in H2O (20 μL) for LC-MS/MS analysis.
(§3) LC-MS/MS Data Acquisition
(§4) Digested samples were analysed by nano-UPLC–MS/MS using a Dionex Ultimate 3000 nano UPLC fitted with an EASY spray column (75 μm × 500 mm, 2 μm particle size, Thermo Scientific), coupled to an Orbitrap Q Exactive instrument. A 60 min gradient of 0.1% (v/v) formic acid in 5 % (v/v) DMSO to 0.1% (v/v) formic acid with 35% (v/v) acetonitrile in 5 % (v/v) DMSO at a flow rate of 250 nL min−1 was used. The instrument was operated in a data-dependant mode, with survey scans acquired at a resolution of 70,000 at 200 m/z and the 15 most abundant precursors selected for HCD fragmentation with an AGC target of […] ions.
(§5) Raw data was processed using MaxQuant[3] version 2.0.1.0 and the reference complete human proteome FASTA file (UniProt, downloaded 05.08.21). Label Free Quantification (LFQ) and Match Between Runs were selected; Cysteine carbamidomethylation was selected as a fixed modification, and methionine oxidation and asparagine deamidation as variable modifications. Default settings for identification and quantification were used. Specifically, a minimum peptide length of 7, a maximum of 2 missed cleavage sites, and a maximum of 5 labelled amino acids per peptide were allowed.
(§6) Through selection of the ‘trypsin/P’ general setting, peptide bond cleavage at arginine or lysine (followed by any amino acid) was considered during in silico digest of the reference proteome. The allowed precursor and fragment ion mass tolerances were 4.5 ppm and 20 ppm, respectively. Peptides and proteins were identified utilizing a 0.01 false discovery rate, with “unique and razor peptides” […]
(§7) mode selected for both identification and quantification of proteins (razor peptides are uniquely assigned to protein groups and not to individual proteins).

CPSF6 = target: T2, CPSF6 (Homo sapiens, UniProt Q16630); details: 20 µM competitor, n=2
T2 construct: endogenous in cells; host or cells: PBMC from healthy blood donors, cell extract
Procedure: as §1, §2, §3, §4, §5, §6, §7

JUP = target: T3, JUP (Homo sapiens, UniProt P14923); details: 20 µM competitor, n=2
T3 construct: endogenous in cells; host or cells: PBMC from healthy blood donors, cell extract
Procedure: as §1, §2, §3, §4, §5, §6, §7

T3 sequence (P14923 whole entry): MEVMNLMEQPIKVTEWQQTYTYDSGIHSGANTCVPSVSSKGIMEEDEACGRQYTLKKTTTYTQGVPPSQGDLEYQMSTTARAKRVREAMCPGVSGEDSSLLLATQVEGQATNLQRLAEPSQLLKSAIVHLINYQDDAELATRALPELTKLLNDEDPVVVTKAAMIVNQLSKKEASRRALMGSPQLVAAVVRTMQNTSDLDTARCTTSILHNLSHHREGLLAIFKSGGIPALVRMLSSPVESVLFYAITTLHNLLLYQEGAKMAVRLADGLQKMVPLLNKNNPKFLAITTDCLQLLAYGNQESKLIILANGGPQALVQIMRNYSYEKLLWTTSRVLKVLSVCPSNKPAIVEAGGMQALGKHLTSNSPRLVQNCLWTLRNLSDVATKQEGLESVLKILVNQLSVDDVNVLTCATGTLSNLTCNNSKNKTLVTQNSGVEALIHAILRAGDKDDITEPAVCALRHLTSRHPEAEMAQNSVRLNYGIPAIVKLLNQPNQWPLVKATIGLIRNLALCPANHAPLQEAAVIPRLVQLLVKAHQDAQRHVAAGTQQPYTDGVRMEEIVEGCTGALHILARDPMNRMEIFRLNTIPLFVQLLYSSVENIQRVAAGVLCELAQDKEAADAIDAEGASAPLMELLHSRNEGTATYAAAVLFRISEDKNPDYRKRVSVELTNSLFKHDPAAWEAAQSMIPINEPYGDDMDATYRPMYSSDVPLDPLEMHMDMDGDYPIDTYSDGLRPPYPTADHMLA
T2 sequence (Q16630 whole entry): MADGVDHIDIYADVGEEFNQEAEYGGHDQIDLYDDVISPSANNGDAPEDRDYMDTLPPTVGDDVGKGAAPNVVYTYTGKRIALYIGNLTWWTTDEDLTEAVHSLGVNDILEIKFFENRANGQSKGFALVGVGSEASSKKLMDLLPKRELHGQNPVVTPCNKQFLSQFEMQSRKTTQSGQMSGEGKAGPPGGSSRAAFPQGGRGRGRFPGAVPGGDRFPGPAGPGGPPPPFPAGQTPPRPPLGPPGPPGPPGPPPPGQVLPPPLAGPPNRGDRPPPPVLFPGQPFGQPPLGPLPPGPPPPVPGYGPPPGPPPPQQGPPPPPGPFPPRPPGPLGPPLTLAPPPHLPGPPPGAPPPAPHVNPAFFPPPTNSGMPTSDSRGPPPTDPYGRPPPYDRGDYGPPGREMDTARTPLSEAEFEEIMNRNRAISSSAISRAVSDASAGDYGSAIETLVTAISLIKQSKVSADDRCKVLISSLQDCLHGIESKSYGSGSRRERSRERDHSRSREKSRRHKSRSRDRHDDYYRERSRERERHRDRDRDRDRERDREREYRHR

SMILES	EHMT1 (GLP) binding to the matrix (EHMT1)	FC vs DMSO (log2 competition), EHMT1 (EHMT1)	FC vs DMSO (log2 competition), CPSF6 (CPSF6)	FC vs DMSO (log2 competition), JUP (JUP)
COc1cc2c(NC3CCN(C(C)C)CC3)nc(C3CCCCC3)nc2cc1OCCCN1CCCC1 [UNC0638]	reduced binding to the matrix	-2.05	-1.787	-1.79
COc1cc2c(N(C)C3CCN(C(C)C)CC3)nc(C3CCCCC3)nc2cc1OCCCN1CCCC1 [UNC0737]	–	0.1524	-0.1868	-0.7174
